Measured values from ChEMBL document CHEMBL1201862, “PubChem BioAssay data set” (2004).
Calls of active or inactive are those of the source.

Experiments:
BJ [1] = experiment: cytotoxicity toward BJ-TERT fibroblasts, dose response, cell-based, RAS-independent, luminescence (AID 1933); type: functional; settings: Homo sapiens
BJ [2] = experiment: cells; type: functional, cell-based; settings: Homo sapiens
BJ [3] = experiment: cytotoxicity toward BJ-TERT-LT-ST fibroblasts, dose response, cell-based, RAS-independent, luminescence (AID 1935); type: functional; settings: Homo sapiens;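 also: BJ fibroblasts immortalized with TERT plus LT and ST oncogenes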
[4] = cytotoxicity toward DRD oncogenic fibroblasts, dose response, cell-based, non-viral oncogenic, luminescence (AID 1934); type: functional; settings: Homo sapiens
Large T antigen = Large T antigen (Simian virus 40, UniProt P03070); type: functional, Betapolyomavirus macacae;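 also: Confirmatory-stage PubChem screen for compounds that inhibit SV40 T antigen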
Large T antigen, sequence (P03070 whole entry): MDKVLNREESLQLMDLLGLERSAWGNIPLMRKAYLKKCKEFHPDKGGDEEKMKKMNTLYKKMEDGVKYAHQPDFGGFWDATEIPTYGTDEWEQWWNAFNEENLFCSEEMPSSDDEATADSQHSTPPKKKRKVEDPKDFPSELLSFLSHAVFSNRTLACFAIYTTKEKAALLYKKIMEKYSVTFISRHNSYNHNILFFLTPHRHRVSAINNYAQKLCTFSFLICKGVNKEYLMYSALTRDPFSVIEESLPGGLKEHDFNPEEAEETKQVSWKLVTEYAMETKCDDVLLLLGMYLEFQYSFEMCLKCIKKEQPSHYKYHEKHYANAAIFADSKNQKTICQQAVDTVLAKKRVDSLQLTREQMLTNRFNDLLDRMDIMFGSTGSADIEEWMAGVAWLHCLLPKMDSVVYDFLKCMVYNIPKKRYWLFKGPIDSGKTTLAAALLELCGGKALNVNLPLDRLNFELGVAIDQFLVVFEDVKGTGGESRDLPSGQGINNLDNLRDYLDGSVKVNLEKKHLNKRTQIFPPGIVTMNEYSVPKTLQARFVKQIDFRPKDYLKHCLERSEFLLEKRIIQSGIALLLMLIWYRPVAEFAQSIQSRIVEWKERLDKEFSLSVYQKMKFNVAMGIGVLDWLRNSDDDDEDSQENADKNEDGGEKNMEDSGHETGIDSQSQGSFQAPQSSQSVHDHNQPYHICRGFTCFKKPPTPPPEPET

[5] = Luminescence Cell-Based Dose Response HTS to Identify Activators of Luciferase Translation or Activity in H4 […] Cells. [Related pubchem assays: 1829 (Project Summary), 1814 (Primary HTS)]; type: functional
H4 = experiment: Luminescence Cell-Based Dose Response HTS to Identify Activators of 5'UTR Stem-Loop Driven Prion Protein mRNA Translation in H4 Neuroglioblastoma Cells. [Related pubchem assays: 1829 (Project Summary), 1814 (Primary HTS)]; type: functional; settings: Homo sapiens
[6] = growth suppression of PTEN-null colon cells, dose response, cell-based, HCT116 PTEN knockout (AID 1047); type: functional;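 also: HCT116 colon tumor cells with PTEN knocked out; cells exposed to compound for 60 hours before readout; potency for loss of cell viability measured by luminescence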
[7] = growth suppression of beta-catenin-knockout colon cells, dose response, cell-based, HCT116, human colon tumor (AID 1045); type: functional;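 also: HCT116 colon tumor cells with beta catenin knocked out; cells exposed to compound for 60 hours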
[8] = biological target: T1, Calpain-2 catalytic subunit (Sus scrofa, UniProt P43367); experiment: pig calpain II inhibitor potency, dose response, biochemical, fluorogenic peptide substrate (AID 1420); type: functional
T1 sequence (P43367 whole entry): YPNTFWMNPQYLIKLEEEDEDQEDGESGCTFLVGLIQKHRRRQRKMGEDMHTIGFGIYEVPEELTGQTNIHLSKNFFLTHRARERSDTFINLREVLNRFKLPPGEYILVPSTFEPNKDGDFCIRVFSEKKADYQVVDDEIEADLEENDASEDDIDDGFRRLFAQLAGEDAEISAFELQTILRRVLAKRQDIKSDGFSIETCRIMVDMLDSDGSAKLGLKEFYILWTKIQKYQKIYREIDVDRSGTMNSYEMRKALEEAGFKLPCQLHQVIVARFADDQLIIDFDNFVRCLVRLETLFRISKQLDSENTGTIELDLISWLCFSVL

H9c2 = experiment: cells; type: functional, cell-based; settings: Rattus norvegicus, H9c2, Myocardium;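 also: confirmatory concentration-response retest of ultra-high-throughput screening hits for modulation of myocardial damage; cell death induced by hydrogen peroxide oxidative stress; compound pretreatment for 60 min then peroxide exposure for 2 h; potency is for protecting the cells against peroxide damage rather than for killing them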
[9] = biological target: T2, Heat shock factor protein 1 (Mus musculus, UniProt P38532); experiment: inhibition of MG132-induced HSE-luciferase signal, confirmation, cell-based, NIH3T3, luminescence, dose retest (AID 2382); type: functional;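 also: NIH3T3 fibroblasts with HSF1-driven luciferase reporter stressed by proteasome inhibitor MG132; luminescence from HSF1-driven luciferase expression after 8 hours of MG132 stress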
T2 sequence (P38532 whole entry): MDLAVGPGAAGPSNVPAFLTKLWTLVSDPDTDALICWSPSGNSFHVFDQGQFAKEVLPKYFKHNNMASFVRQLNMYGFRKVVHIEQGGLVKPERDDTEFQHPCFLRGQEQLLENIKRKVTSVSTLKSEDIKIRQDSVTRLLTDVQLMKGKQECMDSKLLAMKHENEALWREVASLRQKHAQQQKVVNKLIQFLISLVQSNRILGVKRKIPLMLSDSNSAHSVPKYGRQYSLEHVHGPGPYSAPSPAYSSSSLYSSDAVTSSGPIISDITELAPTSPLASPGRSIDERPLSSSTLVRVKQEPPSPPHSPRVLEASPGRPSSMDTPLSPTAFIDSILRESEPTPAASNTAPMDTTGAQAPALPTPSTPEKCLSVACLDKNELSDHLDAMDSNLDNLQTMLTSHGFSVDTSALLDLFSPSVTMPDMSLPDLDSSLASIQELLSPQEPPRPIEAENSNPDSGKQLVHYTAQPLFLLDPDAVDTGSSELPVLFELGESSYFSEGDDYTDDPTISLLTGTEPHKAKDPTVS

[10] = inhibitors of intracellular T. cruzi replication, confirmation, NIH3T3 host cells, beta-gal luminescence (AID 2044); type: functional, cell-based;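 also: intracellular parasites grown in NIH/3T3 mouse fibroblasts as host cells; luminescent beta-galactosidase reporter signal from transgenic T. cruzi replicating inside host cells; inhibitors lower the luminescence signal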
[11] = cytotoxicity toward NIH3T3 fibroblasts, dose response, counter-screen, cell-based, ATP luminescence, mouse fibroblasts (AID 2010); type: functional;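 also: cells exposed to compound for about 90 hours before reading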
[12] = biological target: T3, RNA-binding protein pos-1 (Caenorhabditis elegans, UniProt G5EF15); experiment: inhibitors of POS-1/mex-3 RNA binding, dose response, biochemical, fluorescence polarization (AID 1964);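 also: purified POS-1 fused to maltose binding protein made in E. coli; potency of compounds blocking POS-1 binding to fluorescent RNA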
T3 sequence (G5EF15 whole entry): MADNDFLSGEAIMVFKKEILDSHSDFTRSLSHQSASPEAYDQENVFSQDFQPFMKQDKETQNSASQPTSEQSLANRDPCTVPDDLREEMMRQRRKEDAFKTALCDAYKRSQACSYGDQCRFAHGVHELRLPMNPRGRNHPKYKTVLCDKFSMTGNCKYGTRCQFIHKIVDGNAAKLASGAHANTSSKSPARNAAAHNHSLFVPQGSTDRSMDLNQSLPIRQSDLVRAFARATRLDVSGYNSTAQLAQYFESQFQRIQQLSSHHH

[13] = biological target: T4, Zinc finger protein mex-5 (Caenorhabditis elegans, UniProt Q9XUB2); experiment: MEX-5/TCR-2 RNA interaction inhibitors, dose response, biochemical, C. elegans, fluorescence polarization (AID 1960)
T4 sequence (Q9XUB2 whole entry): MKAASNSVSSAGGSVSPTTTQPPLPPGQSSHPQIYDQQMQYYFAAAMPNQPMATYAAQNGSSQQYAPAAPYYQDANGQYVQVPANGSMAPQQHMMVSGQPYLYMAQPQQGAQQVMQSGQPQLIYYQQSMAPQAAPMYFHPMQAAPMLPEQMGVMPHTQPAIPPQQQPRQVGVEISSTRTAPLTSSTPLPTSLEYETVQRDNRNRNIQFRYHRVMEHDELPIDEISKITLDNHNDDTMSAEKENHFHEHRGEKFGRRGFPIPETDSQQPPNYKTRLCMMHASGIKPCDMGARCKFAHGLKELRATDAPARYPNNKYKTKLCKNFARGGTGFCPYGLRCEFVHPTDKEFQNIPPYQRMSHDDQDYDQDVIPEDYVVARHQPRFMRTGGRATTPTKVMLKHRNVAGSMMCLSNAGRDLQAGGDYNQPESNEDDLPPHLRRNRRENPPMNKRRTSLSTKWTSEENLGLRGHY

cells = type: functional
[14] = biological target: T5, Rac GTPase-activating protein 1 (Homo sapiens, UniProt Q9H0H5); experiment: MgcRacGAP GTPase-activating activity inhibitors, confirmation, biochemical, ADP Hunter fluorescence, primary and confirmatory (AID 624330); type: functional
T5 sequence (Q9H0H5 whole entry): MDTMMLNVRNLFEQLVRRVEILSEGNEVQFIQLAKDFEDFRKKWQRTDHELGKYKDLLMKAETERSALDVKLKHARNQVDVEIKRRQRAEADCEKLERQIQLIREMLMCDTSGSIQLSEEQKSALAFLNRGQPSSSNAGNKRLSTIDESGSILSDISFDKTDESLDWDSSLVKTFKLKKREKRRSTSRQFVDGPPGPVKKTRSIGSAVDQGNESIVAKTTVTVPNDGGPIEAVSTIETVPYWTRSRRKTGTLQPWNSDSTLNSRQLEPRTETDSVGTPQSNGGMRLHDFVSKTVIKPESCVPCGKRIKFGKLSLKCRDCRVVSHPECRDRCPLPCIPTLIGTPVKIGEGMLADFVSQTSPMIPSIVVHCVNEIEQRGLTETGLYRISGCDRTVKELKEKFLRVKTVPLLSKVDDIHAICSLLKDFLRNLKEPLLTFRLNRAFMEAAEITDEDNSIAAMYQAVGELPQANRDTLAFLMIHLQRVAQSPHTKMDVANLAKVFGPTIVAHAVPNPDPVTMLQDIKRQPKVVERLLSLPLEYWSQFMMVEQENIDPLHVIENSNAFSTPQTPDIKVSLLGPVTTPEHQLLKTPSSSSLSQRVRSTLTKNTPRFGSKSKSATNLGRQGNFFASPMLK

COc1ccc(NC(=O)c2c(Cl)n(C)c3ccccc23)cc1
EC50 (BJ [1]): 22.7 µM (active) | EC50 (BJ [2]): 23 µM (active) | EC50 (BJ [3]): > 150 µM (inconclusive) | EC50 [4]: 25.3 µM (active)

COc1cc2c(cc1OC)C[N+](C)(C)CC2
IC50 (Large T antigen): 55.1 µM (active)

Nc1ncccc1OCc1ccc(Br)cc1
EC50 [5]: 1.05 µM (active) | EC50 (H4): > 120 µM (not active)

CCOC(=O)c1cccc(-n2c(-c3ccc(OC)cc3)nc3nc4ccccc4nc32)c1
EC50 [6]: 15.3 µM (active) | EC50 [7]: 13.5 µM (active)

CCOC(=O)C1CCN(S(=O)(=O)c2cc(Br)cc3c2N(C(=O)C2CC2)CC3)CC1
IC50 [8]: 11.5 µM (not active)

O=S(=O)(c1ccccc1)N1CCN(c2nc(-c3cccnc3)nc3ccccc23)CC1
IC50 (H9c2): 10.2 µM (active)

O/N=C(\c1ccc(Cl)cc1)c1cc2ccccc2o1
IC50 [8]: 2.06 µM (not active)

C[C@H](NS(=O)(=O)c1ccc(Cl)cc1)C(=O)OCC(=O)NC(=O)Nc1ccc2c(c1)OCCO2
IC50 [8]: 14.2 µM (not active)

O=C(OCCCN1CCOCC1)c1ccc(O)c(O)c1
EC50 [9]: 34.7 µM (active) | IC50 (Large T antigen): 11.7 µM (active)

C[C@@H]1ON(C)[C@H]2C[C@H]3c4[nH]c5ccc(-c6ccc7c(c6)OCO7)cc5c4CCN3C[C@@H]12
IC50 (H9c2): > 79 µM (inactive)

COc1ccc(N2C3=C(CC4=C2CC(C)(C)CC4=O)C(=O)CC(C)(C)C3)cc1
EC50 [10]: 0.484 µM (active) | EC50 [6]: 9.52 µM (active) | EC50 [11]: 9.07 µM (active) | EC50 [7]: 8.4 µM (active)

Cc1cc(O)nc2ccc(S(=O)(=O)Nc3ccc(O)cc3)cc12
IC50 (Large T antigen): 7.49 µM (active)

N=C(NOC(=O)CCCCCN1C(=O)c2ccccc2C1=O)c1ccccc1
IC50 [8]: 48.1 µM (not active)

CC(C)Cn1c(N)c(C(=O)CSc2ncnc3sc4c(c23)CCCC4)c(=O)n(C)c1=O
EC50 [6]: 12.1 µM (active) | EC50 [7]: 12.2 µM (active)

Cc1[nH]c2ccc(-c3nnc(SCC(=O)c4ccc(F)cc4)o3)cc2c1C
EC50 [9]: > 195 µM (not active) | EC50 [6]: 33.4 µM (active) | EC50 [7]: 31.2 µM (active)

Nc1nc(NC(=O)c2cccs2)nn1-c1ccccc1
EC50 (H4): > 120 µM (not active)

CC(=O)c1ccc(NC(=O)CSc2nnc(-c3ccncc3)o2)cc1
EC50 [12]: > 300 µM (not active) | EC50 [13]: > 300 µM (not active)

Cc1c(-c2ccc(Br)cc2)nc2ccccn12
IC50 (cells): 49.4 µM (active)

COc1ccccc1-c1cc(C(=O)N/N=C/C=C/c2ccccc2[N+](=O)[O-])c2ccccc2n1
IC50 (H9c2): > 79 µM (inactive)

CC(C)(C)c1ccc(OCCOc2ccc(C(C)(C)C)cc2NC=O)c(NC=O)c1
EC50 [10]: 2.47 µM (active) | IC50 [8]: 16.6 µM (not active) | EC50 [11]: > 60 µM (not active)

c1ccc(-c2nc(-c3ccccn3)nc(-c3ccccn3)n2)nc1
EC50 [12]: 31.1 µM (active) | EC50 [13]: 54.6 µM (active)

CN(C(=O)CCc1nc(O)c2ccccc2n1)C1CCS(=O)(=O)C1 (configuration not stated)
IC50 (H9c2): > 79 µM (inactive)

CCCc1cc(O)nc(Nc2ccc(O)cc2)n1
IC50 (Large T antigen): 6.91 µM (active)

CCOc1ccc(Cl)cc1S(=O)(=O)N1CCN(c2ccc(F)cc2)CC1
IC50 [8]: 7.1 µM (not active)

Brc1ccc(-c2csc(NC3=NCCCCC3)n2)cc1
EC50 [5]: 18.9 µM (active) | EC50 (H4): 36.6 µM (active)

CS(=O)(=O)N(CC(O)Cn1c2ccccc2c2ccccc21)c1cccc2ccccc12 (configuration not stated)
EC50 [6]: 16 µM (active) | EC50 [7]: 18.1 µM (active)

N#CC1=C(N)C(C#N)(C#N)C(c2cccnc2)C2COCC=C12 (configuration not stated)
EC50 [12]: > 300 µM (not active) | EC50 [13]: > 300 µM (not active)

Nc1ccc(-c2nnc(O)c3ccccc23)cc1N
IC50 (H9c2): > 79 µM (inactive)

O=C(Nc1ccc(N2CCCC2)cc1)c1cc(Cl)ccc1Cl
EC50 (BJ [1]): 13.6 µM (active) | EC50 (BJ [2]): > 150 µM (not active) | EC50 (BJ [3]): 146 µM (active) | EC50 [4]: 15.8 µM (active)

COc1ccc(/C=N/NC(=O)c2ccc(Br)cc2)cc1CN1CCOCC1
IC50 (Large T antigen): 15.8 µM (active)

CN1C(=O)C(=CNCCCCCCCCCCC(=O)O)C(=O)N(C)C1=O
EC50 [12]: > 300 µM (not active) | EC50 [13]: > 300 µM (not active)

O=C1NC(=O)[C@@H]2C3c4ccccc4C=CN3[C@H](C(=O)c3cccs3)[C@H]12 (some centres not stated)
EC50 [12]: 24.6 µM (inconclusive) | EC50 [13]: 16.4 µM (active)

COc1ccccc1NS(=O)(=O)c1ccc2oc(SCC(=O)N3CCNC3=O)nc2c1
IC50 (H9c2): 15.8 µM (active)

O=C(N[C@@H](Cc1ccccc1)C(=O)OCc1ccccc1)c1[nH]cnc1C(=O)N1CCN(c2ccccc2)CC1
IC50 [8]: 6.6 µM (not active)

O=C(CN1CCN(c2ccc(O)cc2)CC1)Nc1ccc2c(c1)OCCO2
IC50 (Large T antigen): 8.22 µM (active)

COc1ccccc1OCCNC(=O)c1cc([N+](=O)[O-])cc([N+](=O)[O-])c1
EC50 [10]: 0.107 µM (active) | EC50 [11]: > 60 µM (not active) | IC50 (cells): 47.6 µM (active)

CCOC(=O)COc1cc(N)c(Cl)cc1Cl
IC50 (cells): 7.65 µM (active)

CCOC(=O)C1Nc2ccc(C(F)(F)F)cc2C2C=CCC12 (configuration not stated)
EC50 [12]: > 300 µM (not active) | EC50 [13]: > 300 µM (not active)

Oc1ccccc1CNc1ccc2c(c1)OCCO2
IC50 [14]: 94.9 µM (active)

COc1ccccc1NS(=O)(=O)c1cc(N)ccc1N1CCCC1
IC50 [14]: 47.8 µM (active)
